Here are results for nine molecules from ChEMBL document CHEMBL5465560, “Selectivity Literature for EUbOPEN Chemogenomic Library” (2024).

In series [1] the target is Myosin light chain kinase 2, skeletal/cardiac muscle (Homo sapiens) (UniProt Q9H1R3). Put plainly: Selectivity interaction (KinomeScan (DiscoverX)) EUB0000655a MYLK2. The note with it: at 10 µM.
The target in series [2] is Voltage-gated inwardly rectifying potassium channel KCNH2 (Homo sapiens, UniProt Q12809). The experiment in a line: Selectivity interaction (Panel of non-epigenetic targets (kinases, GPCRs, ion channels, and transporters, Eurofins) ) EUB0000271b KCNH2. The note with it: at 1 µM.
For series [3], the target named is DNA (cytosine-5)-methyltransferase 1 (Homo sapiens) (UniProt P26358). Put plainly: Selectivity interaction (Transferase panel (protein, RNA, and DNA methyltransferases. and EP300 (acetyltransferase))) EUB0000270b DNMT1.
Series [4] concerns the target Tyrosine-protein kinase JAK1 (Homo sapiens, UniProt P23458). The experiment in a line: Selectivity interaction (KinomeScan (DiscoverX)) EUB0000045b JAK1. The note with it: at 1 µM.
For series [5], the target named is Dual specificity protein kinase CLK3 (Homo sapiens, UniProt P49761). The experiment in a line: Selectivity interaction (Kinase panel (Z-LYTE Assay)) EUB0001632a CLK3. The note with it: at 10 µM.
In series [6] the target is T1, Activin receptor type-1B (Homo sapiens) (UniProt P36896).
T1 sequence (whole entry): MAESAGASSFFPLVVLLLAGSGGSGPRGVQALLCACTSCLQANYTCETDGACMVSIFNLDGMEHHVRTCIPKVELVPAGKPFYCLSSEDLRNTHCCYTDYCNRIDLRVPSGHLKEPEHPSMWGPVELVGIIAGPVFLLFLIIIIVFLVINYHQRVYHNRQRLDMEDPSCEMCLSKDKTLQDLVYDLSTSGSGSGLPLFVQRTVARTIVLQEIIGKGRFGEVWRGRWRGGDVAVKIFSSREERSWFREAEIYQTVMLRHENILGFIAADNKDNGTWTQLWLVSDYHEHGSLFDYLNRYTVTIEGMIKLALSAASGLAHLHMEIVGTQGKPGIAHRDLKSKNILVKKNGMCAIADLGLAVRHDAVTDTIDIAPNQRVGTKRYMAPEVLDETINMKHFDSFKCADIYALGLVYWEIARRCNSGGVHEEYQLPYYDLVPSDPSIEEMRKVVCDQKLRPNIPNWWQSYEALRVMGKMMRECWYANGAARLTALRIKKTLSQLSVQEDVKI
The experiment in a line: Selectivity interaction (Kinase panel (Z-LYTE Assay)) EUB0001632a ACVR1B. The note with it: at 10 µM.

Series [7] concerns the target Serine/threonine-protein kinase MARK2 (Homo sapiens) (UniProt Q7KZI7). The experiment in a line: Selectivity interaction (ActivX KiNativ screen (kinase selectivity in THP-1 cell lysates)) EUB0000639a MARK2. The format is subcellular. The note with it: lysate, at 5 µM.
The target in a further series is Insulin receptor (Homo sapiens, UniProt P06213). The experiment in a line: Selectivity interaction (Kinase panel (enzymatic assay)) EUB0000595a INSR.
Series [8] deals with T2, Inhibitor of nuclear factor kappa-B kinase subunit epsilon (Homo sapiens) (UniProt Q14164).
T2 sequence (whole entry): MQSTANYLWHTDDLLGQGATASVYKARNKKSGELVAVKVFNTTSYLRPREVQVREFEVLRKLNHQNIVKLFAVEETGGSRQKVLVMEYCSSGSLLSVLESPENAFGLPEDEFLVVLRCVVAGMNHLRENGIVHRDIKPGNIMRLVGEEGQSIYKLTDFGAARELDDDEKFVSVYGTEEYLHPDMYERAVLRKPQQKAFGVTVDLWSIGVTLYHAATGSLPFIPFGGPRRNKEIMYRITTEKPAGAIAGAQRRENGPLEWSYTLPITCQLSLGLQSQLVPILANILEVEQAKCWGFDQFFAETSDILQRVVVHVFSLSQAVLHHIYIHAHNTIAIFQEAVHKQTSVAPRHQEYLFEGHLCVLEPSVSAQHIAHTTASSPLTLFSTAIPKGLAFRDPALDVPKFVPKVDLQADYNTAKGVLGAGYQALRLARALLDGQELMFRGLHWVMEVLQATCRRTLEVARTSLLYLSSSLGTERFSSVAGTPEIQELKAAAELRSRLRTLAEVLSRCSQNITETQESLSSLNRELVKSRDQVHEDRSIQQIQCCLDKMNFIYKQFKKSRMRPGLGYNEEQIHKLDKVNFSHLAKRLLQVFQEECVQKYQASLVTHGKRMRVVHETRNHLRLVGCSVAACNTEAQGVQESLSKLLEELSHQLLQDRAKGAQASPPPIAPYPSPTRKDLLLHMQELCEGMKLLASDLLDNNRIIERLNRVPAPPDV
The experiment in a line: Selectivity interaction (KinomeScan (DiscoverX)) EUB0001619a IKBKE. The note with it: at 1 µM.

The target in series [9] is T3, Phosphatidylinositol 5-phosphate 4-kinase type-2 gamma (Homo sapiens) (UniProt Q8TBX8).
T3 sequence (whole entry): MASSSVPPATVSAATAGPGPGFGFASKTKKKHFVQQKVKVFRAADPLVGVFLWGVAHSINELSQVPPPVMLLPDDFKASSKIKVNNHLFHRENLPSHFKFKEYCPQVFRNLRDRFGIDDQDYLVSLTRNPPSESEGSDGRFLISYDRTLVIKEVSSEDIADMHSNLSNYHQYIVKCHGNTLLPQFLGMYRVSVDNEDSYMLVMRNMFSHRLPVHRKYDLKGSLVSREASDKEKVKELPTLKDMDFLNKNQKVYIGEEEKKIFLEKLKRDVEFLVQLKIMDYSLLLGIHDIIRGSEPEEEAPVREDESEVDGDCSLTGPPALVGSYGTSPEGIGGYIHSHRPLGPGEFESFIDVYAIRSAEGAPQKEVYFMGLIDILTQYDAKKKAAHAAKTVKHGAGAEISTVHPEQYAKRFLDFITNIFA
The experiment in a line: Selectivity interaction (Kinase panel (KiNativ target engagement assay in Jurkat cells)) EUB0001635a PIP4K2C. The format is cell-based. The note with it: Selectivity number of off-targets 0.0, Selectivity number of targets 233.0, Source Knowledge https://www.sciencedirect.com/science/article/pii/S2451945619300674?via%3Dihub, at 1 µM.

Chain of DNA (cytosine-5)-methyltransferase 1 (Homo sapiens) (P26358 whole entry): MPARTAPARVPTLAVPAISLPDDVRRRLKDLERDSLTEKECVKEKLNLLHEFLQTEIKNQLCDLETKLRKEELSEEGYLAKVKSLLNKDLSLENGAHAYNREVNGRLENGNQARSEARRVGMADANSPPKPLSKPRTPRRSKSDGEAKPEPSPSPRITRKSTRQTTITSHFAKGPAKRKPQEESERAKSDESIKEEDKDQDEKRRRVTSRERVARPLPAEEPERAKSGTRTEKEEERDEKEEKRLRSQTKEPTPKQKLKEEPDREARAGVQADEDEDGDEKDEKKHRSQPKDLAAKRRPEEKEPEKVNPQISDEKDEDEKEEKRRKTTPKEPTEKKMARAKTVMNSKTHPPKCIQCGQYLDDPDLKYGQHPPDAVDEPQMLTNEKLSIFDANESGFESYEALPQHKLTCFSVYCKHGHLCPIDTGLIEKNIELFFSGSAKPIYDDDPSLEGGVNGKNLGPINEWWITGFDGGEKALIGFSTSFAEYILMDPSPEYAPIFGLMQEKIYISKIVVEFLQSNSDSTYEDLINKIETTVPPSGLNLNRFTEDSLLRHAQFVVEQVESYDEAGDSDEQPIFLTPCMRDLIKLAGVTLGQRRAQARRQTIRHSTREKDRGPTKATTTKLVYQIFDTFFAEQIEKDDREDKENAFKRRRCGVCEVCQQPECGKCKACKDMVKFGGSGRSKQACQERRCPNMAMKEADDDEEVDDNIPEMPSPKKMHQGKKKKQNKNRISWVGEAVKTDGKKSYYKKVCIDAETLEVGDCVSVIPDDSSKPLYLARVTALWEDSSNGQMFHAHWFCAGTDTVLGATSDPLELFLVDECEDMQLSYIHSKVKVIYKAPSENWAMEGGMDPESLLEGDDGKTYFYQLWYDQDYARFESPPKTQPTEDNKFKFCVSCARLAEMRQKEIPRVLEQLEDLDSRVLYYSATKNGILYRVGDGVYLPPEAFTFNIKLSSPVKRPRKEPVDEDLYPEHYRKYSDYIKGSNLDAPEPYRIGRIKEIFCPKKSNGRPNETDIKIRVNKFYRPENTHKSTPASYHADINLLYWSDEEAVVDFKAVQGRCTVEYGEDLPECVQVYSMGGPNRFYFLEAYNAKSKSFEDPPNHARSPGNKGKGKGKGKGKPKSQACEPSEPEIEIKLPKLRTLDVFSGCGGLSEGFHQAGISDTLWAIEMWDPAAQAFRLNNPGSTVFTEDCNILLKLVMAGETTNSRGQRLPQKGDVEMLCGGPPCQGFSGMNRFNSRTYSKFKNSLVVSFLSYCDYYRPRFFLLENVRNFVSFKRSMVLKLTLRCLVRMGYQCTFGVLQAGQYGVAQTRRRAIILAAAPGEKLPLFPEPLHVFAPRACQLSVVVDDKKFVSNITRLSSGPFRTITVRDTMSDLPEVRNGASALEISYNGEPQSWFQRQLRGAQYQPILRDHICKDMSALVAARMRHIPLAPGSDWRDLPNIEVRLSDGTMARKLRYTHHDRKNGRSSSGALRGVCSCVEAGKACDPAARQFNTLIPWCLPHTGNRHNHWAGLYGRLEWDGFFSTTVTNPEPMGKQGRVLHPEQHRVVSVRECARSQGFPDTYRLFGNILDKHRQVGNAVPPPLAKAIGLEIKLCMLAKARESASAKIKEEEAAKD
Chain of Voltage-gated inwardly rectifying potassium channel KCNH2 (Q12809 whole entry): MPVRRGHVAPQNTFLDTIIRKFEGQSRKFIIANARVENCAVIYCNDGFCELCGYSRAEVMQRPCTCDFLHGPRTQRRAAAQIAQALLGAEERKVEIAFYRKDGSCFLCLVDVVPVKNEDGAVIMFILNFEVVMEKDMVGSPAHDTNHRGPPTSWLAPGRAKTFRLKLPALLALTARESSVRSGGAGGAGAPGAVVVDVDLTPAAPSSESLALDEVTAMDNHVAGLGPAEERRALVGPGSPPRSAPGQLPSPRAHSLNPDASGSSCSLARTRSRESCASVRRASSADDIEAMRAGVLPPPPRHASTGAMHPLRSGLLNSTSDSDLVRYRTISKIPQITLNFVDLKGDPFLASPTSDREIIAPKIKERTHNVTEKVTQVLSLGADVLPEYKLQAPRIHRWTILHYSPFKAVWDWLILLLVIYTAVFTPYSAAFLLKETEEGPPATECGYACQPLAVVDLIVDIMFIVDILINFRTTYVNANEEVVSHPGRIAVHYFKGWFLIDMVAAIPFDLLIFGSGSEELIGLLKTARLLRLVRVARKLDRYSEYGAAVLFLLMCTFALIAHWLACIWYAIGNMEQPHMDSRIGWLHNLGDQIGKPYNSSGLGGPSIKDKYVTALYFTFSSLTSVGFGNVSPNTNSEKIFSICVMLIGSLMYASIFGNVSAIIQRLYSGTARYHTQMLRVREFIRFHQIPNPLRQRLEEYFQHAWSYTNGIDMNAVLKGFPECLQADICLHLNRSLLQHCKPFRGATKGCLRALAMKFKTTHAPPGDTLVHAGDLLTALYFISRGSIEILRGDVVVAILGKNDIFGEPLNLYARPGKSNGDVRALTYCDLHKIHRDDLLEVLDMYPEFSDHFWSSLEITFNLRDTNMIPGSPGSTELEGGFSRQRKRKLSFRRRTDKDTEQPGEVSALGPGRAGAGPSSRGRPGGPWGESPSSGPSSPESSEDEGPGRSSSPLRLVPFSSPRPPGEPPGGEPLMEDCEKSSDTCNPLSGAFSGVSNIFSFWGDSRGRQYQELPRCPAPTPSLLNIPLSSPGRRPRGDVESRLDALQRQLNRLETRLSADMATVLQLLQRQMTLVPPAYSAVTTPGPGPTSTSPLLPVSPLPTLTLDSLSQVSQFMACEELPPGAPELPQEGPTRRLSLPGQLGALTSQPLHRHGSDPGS
Chain of Myosin light chain kinase 2, skeletal/cardiac muscle (Homo sapiens) (Q9H1R3 whole entry): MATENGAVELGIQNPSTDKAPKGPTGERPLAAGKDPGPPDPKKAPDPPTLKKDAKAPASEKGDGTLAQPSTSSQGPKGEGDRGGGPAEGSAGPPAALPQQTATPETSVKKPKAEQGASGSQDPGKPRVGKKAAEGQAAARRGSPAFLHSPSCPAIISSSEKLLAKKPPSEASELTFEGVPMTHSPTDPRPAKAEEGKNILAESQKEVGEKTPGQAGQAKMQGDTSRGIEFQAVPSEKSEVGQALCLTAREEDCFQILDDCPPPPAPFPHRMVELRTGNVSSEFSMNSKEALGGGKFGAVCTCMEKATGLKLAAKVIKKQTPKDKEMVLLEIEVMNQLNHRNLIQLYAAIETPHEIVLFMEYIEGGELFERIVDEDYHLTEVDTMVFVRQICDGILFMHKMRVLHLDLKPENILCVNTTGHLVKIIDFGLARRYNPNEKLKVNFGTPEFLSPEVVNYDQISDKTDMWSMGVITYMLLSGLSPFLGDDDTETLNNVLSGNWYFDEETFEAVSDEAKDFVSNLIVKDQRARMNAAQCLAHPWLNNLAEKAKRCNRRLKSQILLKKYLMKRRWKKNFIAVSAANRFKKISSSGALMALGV
Chain of Tyrosine-protein kinase JAK1 (P23458 whole entry): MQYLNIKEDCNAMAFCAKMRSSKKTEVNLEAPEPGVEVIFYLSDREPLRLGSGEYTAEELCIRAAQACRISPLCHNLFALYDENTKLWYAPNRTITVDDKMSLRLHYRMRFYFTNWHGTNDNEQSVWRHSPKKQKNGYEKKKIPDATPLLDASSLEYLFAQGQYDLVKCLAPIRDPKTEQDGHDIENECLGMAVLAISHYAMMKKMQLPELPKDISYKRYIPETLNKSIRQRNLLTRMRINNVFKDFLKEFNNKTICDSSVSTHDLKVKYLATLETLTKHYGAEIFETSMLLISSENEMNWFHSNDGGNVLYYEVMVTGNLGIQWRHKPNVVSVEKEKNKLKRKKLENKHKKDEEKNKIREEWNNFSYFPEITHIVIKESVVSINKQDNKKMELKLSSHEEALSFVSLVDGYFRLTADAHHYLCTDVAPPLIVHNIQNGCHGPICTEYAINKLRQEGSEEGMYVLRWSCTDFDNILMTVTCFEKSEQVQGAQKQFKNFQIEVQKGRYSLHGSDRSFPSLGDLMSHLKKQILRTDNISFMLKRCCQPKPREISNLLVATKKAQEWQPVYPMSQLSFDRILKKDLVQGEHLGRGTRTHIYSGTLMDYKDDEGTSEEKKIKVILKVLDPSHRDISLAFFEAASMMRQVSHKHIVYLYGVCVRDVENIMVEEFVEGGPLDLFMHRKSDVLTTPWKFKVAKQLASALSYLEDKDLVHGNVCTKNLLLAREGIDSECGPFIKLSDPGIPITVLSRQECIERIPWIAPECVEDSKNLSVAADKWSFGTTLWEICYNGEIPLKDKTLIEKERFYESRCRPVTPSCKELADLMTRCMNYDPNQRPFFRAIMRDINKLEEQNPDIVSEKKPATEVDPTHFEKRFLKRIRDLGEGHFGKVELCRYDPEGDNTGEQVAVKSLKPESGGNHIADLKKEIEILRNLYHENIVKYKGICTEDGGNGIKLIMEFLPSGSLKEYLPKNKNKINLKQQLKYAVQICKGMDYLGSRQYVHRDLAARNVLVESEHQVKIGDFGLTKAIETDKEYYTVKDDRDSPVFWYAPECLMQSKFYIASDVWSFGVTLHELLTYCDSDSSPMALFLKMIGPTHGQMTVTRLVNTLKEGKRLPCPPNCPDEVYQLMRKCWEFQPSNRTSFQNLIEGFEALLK
Chain of Dual specificity protein kinase CLK3 (P49761 whole entry, looked up): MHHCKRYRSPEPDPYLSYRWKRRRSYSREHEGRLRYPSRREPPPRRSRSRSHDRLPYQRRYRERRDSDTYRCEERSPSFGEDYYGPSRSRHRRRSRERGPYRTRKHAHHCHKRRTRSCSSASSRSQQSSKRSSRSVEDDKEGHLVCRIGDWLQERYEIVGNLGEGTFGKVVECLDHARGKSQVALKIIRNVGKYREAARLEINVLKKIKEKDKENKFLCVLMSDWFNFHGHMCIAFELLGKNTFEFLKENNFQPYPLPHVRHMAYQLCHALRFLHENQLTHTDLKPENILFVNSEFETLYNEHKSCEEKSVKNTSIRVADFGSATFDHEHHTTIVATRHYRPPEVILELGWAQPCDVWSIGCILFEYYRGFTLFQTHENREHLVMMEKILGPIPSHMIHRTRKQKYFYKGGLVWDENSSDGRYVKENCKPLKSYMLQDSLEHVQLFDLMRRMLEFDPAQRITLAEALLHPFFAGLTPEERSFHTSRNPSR

For `CN(C)CCOc1ccc(-c2nc(-c3ccncc3)c(-c3ccc4c(c3)CC/C4=N\O)[nH]2)cc1`, the % of control in [1] was determined as 100%.
On to `Cc1cc(C)cc([C@@H]2c3cc(C)ccc3NC(=O)CN2C(=O)c2ccc(Br)s2)c1`, for which, in series [2], the “% of inhibition” value is 0%.
For `Cc1cc(CN)cc(C)c1-c1ncn(C)c1-c1cncn1C`, the results for the % activity in series [3] (at 1 µM) and in [3] (at 10 µM) were above 90% and above 80%, respectively.
Regarding `C=CC(=O)Nc1cc(-n2c(=O)ccc3cnc4ccc(-c5ccc(NS(C)(=O)=O)cc5)cc4c32)ccc1C`, the % of control in series [4] amounted to 99%.
Take `Cn1cc(-n2cnc3c(NCc4nc5cc(Cl)c(Cl)cc5[nH]4)nc(N4CCOCC4)nc32)cn1`: the % of control in series [5] was determined as 8.16%; in series [6], 5.65%.
`CC[C@@H]1[C@H](F)C(=O)N[C@@H]1COc1nccc2cc(C(N)=O)c(OC)cc12` [ZIMLOVISERTIB] yielded a % of inhibition in series [7] of 48.9%.
For the molecule `COCC(=O)NC/C=C/c1ccc2ncnc(Nc3ccc(Oc4ccc(C)nc4)c(C)c3)c2c1` [CP-724714], on Insulin receptor, the IC50 is above 10 µM.
With `N#Cc1cccc(-c2c[nH]c3ncnc(N4CCOCC4)c23)c1`, in series [8], the % of control amounted to 100%.
As to `C=CC(=O)Nc1ccc(C(=O)Nc2[nH]nc3c2CN(C(=O)N[C@H](CN(C)C)c2ccccc2)C3(C)C)cc1`, in [9], the % of engagement is -2.5%.

The term IC50 denotes the concentration needed to halve the response being measured. High values mean a need for much substance, low ones inhibition by little substance.
